18 molecules from patent US12503475B2 (Centessa Pharmaceuticals (UK) Limited, priority 2020, dated 2025) can be followed below.

The experiment concerns the target T1, human orexin type 2 receptor (hOX2R) (Homo sapiens, UniProt O43614).
T1 construct: expressed in transfected cells
T1 sequence (O43614 1-444): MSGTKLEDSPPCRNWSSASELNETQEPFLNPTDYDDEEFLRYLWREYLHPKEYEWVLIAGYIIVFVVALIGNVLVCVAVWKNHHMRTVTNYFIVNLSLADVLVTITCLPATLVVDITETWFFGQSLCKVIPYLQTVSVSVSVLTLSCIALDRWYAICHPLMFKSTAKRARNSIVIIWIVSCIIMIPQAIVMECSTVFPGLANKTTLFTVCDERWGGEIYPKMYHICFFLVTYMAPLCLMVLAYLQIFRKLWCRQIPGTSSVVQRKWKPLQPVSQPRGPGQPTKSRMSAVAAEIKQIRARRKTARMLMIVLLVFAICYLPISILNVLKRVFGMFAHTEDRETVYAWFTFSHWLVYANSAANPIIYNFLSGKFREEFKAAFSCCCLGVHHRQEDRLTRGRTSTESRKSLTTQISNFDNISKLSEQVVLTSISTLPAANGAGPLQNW
The experiment in a line: Measurement of orexin type 2 receptor agonist activity (FLIPR calcium fluorescence). The class given is cell-based. The following applies: CHO cells expressing hOX2R, FLIPR calcium fluorescence; for EC50: read-out: hOx2 pEC50 (converted); for Emax: CHO, read-out: hOx2 Emax (%). The essentials:
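Agonism was read as fluorescence in cells stably expressing human OX2R. E. is the response at 10 μM relative to orexin A as full agonist (100%).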

As usually defined, the Emax is the size of the effect at its maximum, as opposed to the concentration needed. In the case of `O=C([C@H]1CCO1)N1CC2(CC2)[C@H](NS(=O)(=O)C(F)F)[C@@H]1Cc1cccc(-c2cc(F)ccc2F)c1F` [Compound 171, 1,1-difluoro-N-((6S,7S)-5-((R)-oxetane-2-carbonyl)-6-((2,2′,5′-trifluoro-[1,1′-biphenyl]-3-yl)methyl)-5-azaspiro[2A]heptan-7-yl)methanesulfonamide], the EC50 was 1 to 10 nM and the maximal response (Emax) lay in the range of 90 to 100%.
The like results for `CN(CCF)C(=O)N1CC2(CC2)[C@H](NS(C)(=O)=O)[C@@H]1Cc1cccc(-c2ccccc2)c1F` [Compound 82, (6S,7S)-6-((2-fluoro-[1,1′-biphenyl]-3-yl)methyl)-N-(2-fluoroethyl)-N-methyl-7-(methylsulfonamido)-5-azaspiro[2.4]heptane-5-carboxamide] were, in that order, 1 to 10 nM and 90 to 100%.
With `O=C(NCC(F)F)N1CC2(CC2)[C@H](NS(=O)(=O)C(F)F)[C@@H]1Cc1cc(F)cc(-c2ccccc2)c1F` [Compound 389, (6S,7S)-6-((2,5-difluoro-[1,1′-biphenyl]-3-yl)methyl)-N-(2,2-difluoroethyl)-7-((difluoromethyl)sulfonamido)-5-azaspiro[2.4]heptane-5-carboxamide], the EC50 was 1 to 10 nM and the maximum response (Emax) is 90 to 100%.
With `[2H]C([2H])([2H])N(C(=O)N1CC2(CC2)[C@H](NS(C)(=O)=O)[C@@H]1Cc1cc(F)cc(-c2ccccc2)c1F)C([2H])([2H])[2H]` [Compound 355, (6S,7S)-6-((2,5-difluoro-[1,1′-biphenyl]-3-yl)methyl)-N,N-bis(methyl-d3)-7-(methylsulfonamido)-5-azaspiro[2.4]heptane-5-carboxamide], the EC50 is 10 to 100 nM and the Emax lay within 90 to 100%.
Consider `O=C([C@H]1CCO1)N1CC2(CC2)[C@H](NS(=O)(=O)C2CC2)[C@@H]1Cc1cccc(-c2cc(F)cc(F)c2)c1F` [Compound 223, N-((6S,7S)-5-((R)-oxetane-2-carbonyl)-6-((2,3′,5′-trifluoro-[1,1′-biphenyl]-3-yl)methyl)-5-azaspiro[2.4]heptan-7-yl)cyclopropanesulfonamide], for which the EC50 was 0.0794 to 1 nM and the maximal response (Emax) was 90 to 100%.
On to `CC(C)C(=O)N1CC2(CC2)[C@@H](NS(C)(=O)=O)[C@H]1Cc1cccc(-c2ccccc2)c1` [Compound 16, N-((6R,7R)-6-([1,1′-biphenyl]-3-ylmethyl)-5-isobutyryl-5-azaspiro[2.4]heptan-7-yl)methanesulfonamide], for which the EC50 was 100 to 1000 nM and the Emax was in the range of 50 to 60%.
Consider “N-((6S,7S)-6-((2-fluoro-[1,1′- biphenyl]-3-yl)methyl)-5-((R)- 2-(fluoromethyl)azetidine-1- carbonyl)-5- azaspiro[2.4]heptan-7- yl)metbanesulfonamide [Compound 314]”, for which the “hOx2 Emax (%)” value was “A (Emax ranging between 90 and 100)”; the “hOx2 pEC50” value was “**** (pEC50 ranging between 8.0 and 9.0)”.
In the case of `CC(C)C(=O)N1CC2(CC2)C(NS(=O)(=O)CF)C1Cc1cccc(-c2ccccc2)c1` (racemic) [Compound 36, N-(6-([1,1′-biphenyl]-3-ylmethyl)-5-isobutyryl-5-azaspiro[2.4]heptan-7-yl)-1-fluoromethanesulfonamide], the EC50 was 1 to 10 nM and the Emax was 90 to 100%.
For the molecule `CS(=O)(=O)N[C@@H]1[C@H](Cc2cccc(-c3cccc(Cl)c3)c2F)N(C(=O)[C@H]2CCO2)CC12CC2` [Compound 161, N-((6S,7S)-6-((3′-chloro-2-fluoro-[1,1′-biphenyl]-3-yl)methyl)-5-((R)-oxetane-2-carbonyl)-5-azaspiro[2.4]heptan-7-yl)methanesulfonamide], the EC50 was 1 to 10 nM and the Emax is 90 to 100%.
With `C[C@]1(C(=O)N2CC3(CC3)[C@H](NS(=O)(=O)CF)[C@@H]2Cc2cccc(-c3ccccc3)c2F)CCO1` [Compound 202, 1-fluoro-N-((6S,7S)-6-((2-fluoro-[1,1′-biphenyl]-3-yl)methyl)-5-((R)-2-methyloxetane-2-carbonyl)-5-azaspiro[2.4]heptan-7-yl)methanesulfonamide], the EC50 was 1 to 10 nM and the Emax lay in the range of 90 to 100%.
As to `CS(=O)(=O)N[C@H]1[C@@H](Cc2cccc(-c3cc(F)cc(F)c3)c2F)N(C(=O)N2CCC2)CC12CC2` [Compound 31, N-((6R,7R)-5-(azetidine-1-carbonyl)-6-((2,3′,5′-trifluoro-[1,1′-biphenyl]-3-yl)methyl)-5-azaspiro[2.4]heptan-7-yl)methanesulfonamide], the EC50 was 10 to 100 nM and the Emax was 90 to 100%.
In the case of `CC(C)S(=O)(=O)N[C@@H]1[C@H](Cc2cccc(-c3ccccc3)c2F)N(C(=O)[C@H]2CCO2)CC12CC2` [Compound 162, N-((6S,7S)-6-((2-fluoro-[1,1′-biphenyl]-3-yl)methyl)-5-((R)-oxetane-2-carbonyl)-5-azaspiro[2.4]heptan-7-yl)propane-2-sulfonamide], the EC50 is 1 to 10 nM and the maximum response (Emax) is 90 to 100%.
The like results for `O=C([C@H]1CCO1)N1CC2(CC2)[C@H](NS(=O)(=O)CF)[C@@H]1Cc1cccc(-c2cccc(C(F)(F)F)c2)c1F` [Compound 197, 1-fluoro-N-((6S,7S)-6-((2-fluoro-3′-(trifluoromethyl)-[1,1′-biphenyl]-3-yl)methyl)-5-((R)-oxetane-2-carbonyl)-5-azaspiro[2.4]heptan-7-yl)methanesulfonamide] were, in that order, 10 to 100 nM and 80 to 90%.
With `N#C[C@]1(C(=O)N2CC3(CC3)[C@H](NS(=O)(=O)C(F)F)[C@@H]2Cc2cccc(-c3ccccc3)c2F)CCO1` [Compound 408, N-((6S,7S)-5-((S)-2-cyanooxetane-2-carbonyl)-6-((2-fluoro-[1,1′-biphenyl]-3-yl)methyl)-5-azaspiro[2.4]heptan-7-yl)-1,1-difluoromethanesulfonamide], the EC50 is 1 to 10 nM and the Emax fell in the range of 90 to 100%.
The like results for `CC1CN(C(=O)N2CC3(CC3)C(NS(C)(=O)=O)C2Cc2cccc(-c3ccccc3)c2)C1` (racemic) [Compound 57, N-(6-([1,1′-biphenyl]-3-ylmethyl)-5-(3-methylazetidine-1-carbonyl)-5-azaspiro[2.4]heptan-7-yl)methanesulfonamide] were, in that order, 1 to 10 nM and 90 to 100%.
As to `CCS(=O)(=O)NC1C(Cc2cccc(-c3ccccc3)c2)N(C(=O)C(C)C)CC12CC2` (racemic) [Compound 7, N-(6-([1,1-biphenyl]-3-ylmethyl)-5-isobutyryl-5-azaspiro[2.4]heptan-7-yl)ethanesulfonamide], the EC50 is 1 to 10 nM and the maximal effect (Emax) fell in the range of 90 to 100%.
Take `O=C([C@@H](O)C(F)F)N1CC2(CC2)[C@H](NS(=O)(=O)C(F)F)[C@@H]1Cc1cccc(-c2ccccc2)c1F` [Compound 198, N-((6S,7S)-5-((R)-3,3-difluoro-2-hydroxypropanoyl)-6-((2-fluoro-[1,1′-biphenyl]-3-yl)methyl)-5-azaspiro[2.4]heptan-7-yl)-1,1-difluoromethanesulfonamide]: the EC50 was 1 to 10 nM and the Emax lay within 90 to 100%.
On to `CS(=O)(=O)N[C@@H]1[C@H](Cc2cccc(-c3ccccc3)c2)N(C(=O)[C@H]2CCO2)CC12CC2` [Compound 55, N-((6S,7S)-6-([1,1′-biphenyl]-3-ylmethyl)-5-((R)-oxetane-2-carbonyl)-5-azaspiro[2.4]heptan-7-yl)methanesulfonamide], for which the EC50 is 10 to 100 nM and the Emax was in the range of 90 to 100%.
